In PubChem BioAssay AID330 (DTP/NCI, 2004):
“And” between values parts separate entries of the source, which are not always exact repeats. Equal entries are not always repeated. Toxic doses and inconclusive results are not listed. How the source made its calls: active means survival T/C of 150% or more; inactive means T/C below 125% in these data.

Test system: P388 leukemia ip, CD2F1 mice, survival T/C
Experiment: NCI In Vivo Anticancer Drug Screen. Data for tumor model P388 Leukemia (intraperitoneal) in CD2F1 (CDF1) mice
Conditions: endpoint: median survival time, higher = longer survival
Summary of the method: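 Mice carrying the transplanted tumor received test compound or vehicle. Survival was recorded in each group, and the value is the treated-group measurement divided by that of the vehicle-treated control group.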

[1] = dose: 50.0 mg/kg/injection, schedule: Q01DX009 (ip), vehicle: saline with Tween-80
[2] = dose: 100.0 mg/kg/injection, schedule: Q01DX009 (ip), vehicle: saline with Tween-80
[3] = dose: 60.0 mg/kg/injection, schedule: Q01DX005 (ip), vehicle: saline with Tween-80
[4] = dose: 120.0 mg/kg/injection, schedule: Q01DX005 (ip), vehicle: saline with Tween-80
[5] = dose: 50.0 mg/kg/injection, schedule: Q01DX005 (ip), vehicle: saline with Tween-80
[6] = dose: 100.0 mg/kg/injection, schedule: Q01DX005 (ip), vehicle: saline with Tween-80
[7] = dose: 1.56 mg/kg/injection, schedule: Q01DX009 (ip), vehicle: saline
[8] = dose: 3.12 mg/kg/injection, schedule: Q01DX009 (ip), vehicle: saline
[9] = dose: 6.25 mg/kg/injection, schedule: Q01DX009 (ip), vehicle: saline
[10] = dose: 50.0 mg/kg/injection, schedule: Q01DX005 (ip), vehicle: Klucel (hydroxypropylcellulose) (HPC)
[11] = dose: 100.0 mg/kg/injection, schedule: Q01DX005 (ip), vehicle: Klucel (hydroxypropylcellulose) (HPC)
[12] = dose: 200.0 mg/kg/injection, schedule: Q01DX005 (ip), vehicle: Klucel (hydroxypropylcellulose) (HPC)
[13] = dose: 240.0 mg/kg/injection, schedule: Q01DX005 (ip), vehicle: saline with Tween-80
[14] = dose: 100.0 mg/kg/injection, schedule: Q01DX001 (ip), vehicle: saline with Tween-80
[15] = dose: 200.0 mg/kg/injection, schedule: Q01DX001 (ip), vehicle: saline with Tween-80
[16] = dose: 400.0 mg/kg/injection, schedule: Q01DX001 (ip), vehicle: saline with Tween-80

Measured: T/C

CC(=O)OC(C)(C)/C=C/C(=O)[C@](C)(O)[C@H]1[C@H](O)C[C@@]2(C)[C@@H]3CC=C4[C@@H](C[C@H](O)[C@H](O)C4(C)C)[C@]3(C)C(=O)C[C@]12C
inactive: dose: 5.0 mg/kg/injection, schedule: Q01DX009 (ip), vehicle: saline with Tween-80 107 % of control | dose: 10.0 mg/kg/injection, schedule: Q01DX009 (ip), vehicle: saline with Tween-80 107 % of control | dose: 20.0 mg/kg/injection, schedule: Q01DX009 (ip), vehicle: saline with Tween-80 112 % of control

CCCCP(=O)(CCCC)CCCC.CCCCP(=O)(CCCC)CCCC.CCCCP(=O)(CCCC)CCCC.CCCCP(=O)(CCCC)CCCC.[Mn+2].[O-][Cl+3]([O-])([O-])O
inactive: dose: 50.0 mg/kg/injection, schedule: Q01DX009 (ip), vehicle: saline + Tween-80 + alcohol 101 % of control | [1] 104 % of control | dose: 100.0 mg/kg/injection, schedule: Q01DX009 (ip), vehicle: saline + Tween-80 + alcohol 116 % of control | [2] 119 % of control | dose: 200.0 mg/kg/injection, schedule: Q01DX009 (ip), vehicle: saline + Tween-80 + alcohol 122 % of control

CC1(COc2ccccc2OCC2(C)CO2)CO1 (centres undefined)
inactive: dose: 1.88 mg/kg/injection, schedule: Q01DX005 (ip), vehicle: saline with Tween-80 102 % of control | dose: 3.75 mg/kg/injection, schedule: Q01DX005 (ip), vehicle: saline with Tween-80 100 % of control | dose: 7.5 mg/kg/injection, schedule: Q01DX005 (ip), vehicle: saline with Tween-80 98 % of control | dose: 15.0 mg/kg/injection, schedule: Q01DX005 (ip), vehicle: saline with Tween-80 100 % of control | dose: 30.0 mg/kg/injection, schedule: Q01DX005 (ip), vehicle: saline with Tween-80 100 % of control | [3] 102 % of control | [4] 107 % of control

COc1cc(COC(=O)Nc2ccccc2F)cc(OC)c1OC
inactive: [5] 93 % of control | [6] 101 % of control | dose: 200.0 mg/kg/injection, schedule: Q01DX005 (ip), vehicle: saline with Tween-80 92 % of control

O=C1OCC2OC(=O)c3cc(O)c(O)c(O)c3-c3c(O)c(O)c(O)c4c3C(=O)OC(C2OC(=O)c2cc(O)c(O)c(O)c2-c2c1cc(O)c(O)c2O)C1OC(=O)c2c-4c(O)c(O)c(O)c2C1O (centres undefined)
inactive: [7] 101 % of control | [8] 100 % of control | [9] 99 % of control and 88 % of control and 100 % of control | dose: 12.5 mg/kg/injection, schedule: Q01DX009 (ip), vehicle: saline 100 % of control

CC(=O)n1c(N)nc2ccccc21
inactive: dose: 50.0 mg/kg/injection, schedule: Q01DX009 (ip), vehicle: saline 104 % of control | dose: 100.0 mg/kg/injection, schedule: Q01DX009 (ip), vehicle: saline 104 % of control | dose: 200.0 mg/kg/injection, schedule: Q01DX009 (ip), vehicle: saline 90 % of control

COc1ccc(C2=C(Cl)C(=O)N(c3ccc(OC)cc3OC)C(=O)C2(Cl)Cl)cc1
inactive: dose: 100.0 mg/kg/injection, schedule: Q04DX002 (ip), vehicle: Klucel (hydroxypropylcellulose) (HPC) 98 % of control | dose: 200.0 mg/kg/injection, schedule: Q04DX002 (ip), vehicle: Klucel (hydroxypropylcellulose) (HPC) 101 % of control | dose: 400.0 mg/kg/injection, schedule: Q04DX002 (ip), vehicle: Klucel (hydroxypropylcellulose) (HPC) 117 % of control

CCN(CC)CCNC(=O)c1nn(-c2ccccc2)c2c1CCc1ccccc1-2
inactive: dose: 25.0 mg/kg/injection, schedule: Q04DX003 (ip), vehicle: saline 100 % of control | dose: 50.0 mg/kg/injection, schedule: Q04DX003 (ip), vehicle: saline 101 % of control | dose: 100.0 mg/kg/injection, schedule: Q04DX003 (ip), vehicle: saline 102 % of control and 107 % of control

Cc1c2cccc1CSCc1cccc(c1C)CSC2
inactive: dose: 50.0 mg/kg/injection, schedule: Q01DX009 (ip), vehicle: suspension in saline 99 % of control | dose: 100.0 mg/kg/injection, schedule: Q01DX009 (ip), vehicle: suspension in saline 92 % of control | dose: 200.0 mg/kg/injection, schedule: Q01DX009 (ip), vehicle: suspension in saline 100 % of control

Cc1nnn(NC(=O)Cc2ccccc2)c1C
inactive: dose: 100.0 mg/kg/injection, schedule: Q01DX001 (ip), vehicle: Klucel (hydroxypropylcellulose) (HPC) 98 % of control | dose: 200.0 mg/kg/injection, schedule: Q01DX001 (ip), vehicle: Klucel (hydroxypropylcellulose) (HPC) 99 % of control | dose: 400.0 mg/kg/injection, schedule: Q01DX001 (ip), vehicle: Klucel (hydroxypropylcellulose) (HPC) 99 % of control

COc1ccc(CCN2CCC(Nc3nc4ccccc4n3Cc3ccc(F)cc3)CC2)cc1
inactive: [5] 92 % of control | [6] 95 % of control

COc1cc2c(cc1C(C)c1cc(OC)c(OC)c(OC)c1)OCO2 (centres undefined)
inactive: [10] 99 % of control | [11] 97 % of control | [12] 91 % of control

CC(=O)COc1ccccc1NC(C)=O
inactive: dose: 100.0 mg/kg/injection, schedule: Q04DX003 (ip), vehicle: saline with Tween-80 109 % of control | dose: 200.0 mg/kg/injection, schedule: Q04DX003 (ip), vehicle: saline with Tween-80 90 % of control | dose: 400.0 mg/kg/injection, schedule: Q04DX003 (ip), vehicle: saline with Tween-80 100 % of control

O=C(/N=C1\N=Nc2c(O)c(C3(c4nc5n(c4O)/C(=N/C(=O)Nc4ccc(Cl)cc4)N=N5)Cc4ccccc4C3=O)nn21)Nc1ccc(Cl)cc1 (centres undefined)
inactive: [3] 101 % of control | [4] 94 % of control | [13] 94 % of control

C=CCSc1nc(N)nc(Nc2ccccc2)n1
inactive: [14] 98 % of control | [15] 92 % of control | [16] 87 % of control

COc1cc2c(cc1OC)C(c1ccccc1)ON(C)CC2 (centres undefined)
inactive: [10] 100 % of control | [11] 99 % of control | [12] 104 % of control

COc1ccc2c(C)c[nH]c2c1
inactive: [14] 100 % of control | [15] 118 % of control | [16] 100 % of control

O=C(SCc1oc2ccccc2c1O)c1ccccc1
inactive: dose: 12.5 mg/kg/injection, schedule: Q01DX009 (ip), vehicle: saline with Tween-80 103 % of control | dose: 25.0 mg/kg/injection, schedule: Q01DX009 (ip), vehicle: saline with Tween-80 104 % of control | [1] 112 % of control | [2] 94 % of control

CC12CC3CN(C(=O)c4ccccc4)CCC3CC1=Nc1ccccc12 (centres undefined)
inactive: dose: 25.0 mg/kg/injection, schedule: Q04DX002 (ip), vehicle: saline with Tween-80 100 % of control | dose: 50.0 mg/kg/injection, schedule: Q04DX002 (ip), vehicle: saline with Tween-80 103 % of control | dose: 100.0 mg/kg/injection, schedule: Q04DX002 (ip), vehicle: saline with Tween-80 94 % of control | dose: 200.0 mg/kg/injection, schedule: Q04DX002 (ip), vehicle: saline with Tween-80 86 % of control

Cc1ccc(S(=O)(=O)NC(=O)NC2=NC(C)(C)N(c3ccc(Cl)c(Cl)c3)C(N)=N2)cc1
inactive: [3] 105 % of control | [4] 108 % of control | [13] 114 % of control

CN(S(=O)(=O)CC(F)(F)F)S(=O)(=O)C(F)(F)F
inactive: [7] 120 % of control | dose: 2.05 mg/kg/injection, schedule: Q01DX009 (ip), vehicle: saline 93 % of control and 97 % of control | [8] 101 % of control and 102 % of control | dose: 4.68 mg/kg/injection, schedule: Q01DX009 (ip), vehicle: saline 102 % of control and 111 % of control | [9] 100 % of control

N#CO
inactive: [2] 90 % of control
